Reference: PubChem BioAssay (NCI)
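The concentration for 50% growth inhibition is given as GI50. TGI denotes the concentration required for complete inhibition of growth.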

Key:
Assay in all cases: NCI-60 cell line screen, 384-well format
786-0 renal = test system: 786-0 renal
A498 renal = test system: A498 renal
A549 NSCLC = test system: A549 NSCLC
ACHN renal = test system: ACHN renal
BT-549 breast = test system: BT-549 breast
CAKI-1 renal = test system: CAKI-1 renal
CCRF-CEM leukemia = test system: CCRF-CEM leukemia
COLO 205 colon = test system: COLO 205 colon
DU-145 prostate = test system: DU-145 prostate
EKVX NSCLC = test system: EKVX NSCLC
HCC-2998 colon = test system: HCC-2998 colon
HOP-62 NSCLC = test system: HOP-62 NSCLC
HOP-92 NSCLC = test system: HOP-92 NSCLC
HS 578T breast = test system: HS 578T breast
HT29 colon = test system: HT29 colon
IGROV1 ovarian = test system: IGROV1 ovarian
K-562 leukemia = test system: K-562 leukemia
KM12 colon = test system: KM12 colon
LOX IMVI melanoma = test system: LOX IMVI melanoma
M14 melanoma = test system: M14 melanoma
MDA-MB-231 breast = test system: MDA-MB-231 breast
MDA-MB-435 melanoma = test system: MDA-MB-435 melanoma
MDA-MB-468 breast = test system: MDA-MB-468 breast
NCI-H226 lung = test system: NCI-H226 lung
NCI-H23 lung = test system: NCI-H23 lung
NCI-H322M lung = test system: NCI-H322M lung
NCI-H460 NSCLC = test system: NCI-H460 NSCLC
NCI-H522 lung = test system: NCI-H522 lung
NCI/ADR-RES ovarian = test system: NCI/ADR-RES ovarian
OVCAR-3 ovarian = test system: OVCAR-3 ovarian
OVCAR-4 ovarian = test system: OVCAR-4 ovarian
OVCAR-5 ovarian = test system: OVCAR-5 ovarian
OVCAR-8 ovarian = test system: OVCAR-8 ovarian
RPMI-8226 leukemia = test system: RPMI-8226 leukemia
RXF 393 renal = test system: RXF 393 renal
SF-268 CNS = test system: SF-268 CNS
SF-295 CNS = test system: SF-295 CNS
SF-539 CNS = test system: SF-539 CNS
SK-MEL-5 melanoma = test system: SK-MEL-5 melanoma
SK-OV-3 ovarian = test system: SK-OV-3 ovarian
SNB-19 CNS = test system: SNB-19 CNS
SNB-75 CNS = test system: SNB-75 CNS
T-47D breast = test system: T-47D breast
U251 glioblastoma = test system: U251 glioblastoma
UACC-257 melanoma = test system: UACC-257 melanoma
UACC-62 melanoma = test system: UACC-62 melanoma
UO-31 renal = test system: UO-31 renal

N=C(N)c1ccc2nc(-c3cc(CC(=O)N[C@@H](CC(=O)O)C(=O)O)cc(-c4cc(S(N)(=O)=O)ccc4O)c3O)[nH]c2c1
GI50 ([…]-0 renal): > 100 µM
TGI (786-0 renal): > 100 µM
GI50 (A498 renal): > 100 µM
TGI (A498 renal): > 100 µM
GI50 (A549 NSCLC): > 100 µM
TGI (A549 NSCLC): > 100 µM
GI50 (ACHN renal): > 100 µM
TGI (ACHN renal): > 100 µM
GI50 (BT-549 breast): > 100 µM
TGI (BT-549 breast): > 100 µM
GI50 (CAKI-1 renal): > 100 µM
TGI (CAKI-1 renal): > 100 µM
GI50 (CCRF-CEM leukemia): > 100 µM
TGI (CCRF-CEM leukemia): > 100 µM
GI50 (COLO 205 colon): > 100 µM
TGI (COLO 205 colon): > 100 µM
GI50 (DU-145 prostate): > 100 µM
TGI (DU-145 prostate): > 100 µM
GI50 (EKVX NSCLC): > 100 µM
TGI (EKVX NSCLC): > 100 µM
GI50 (HCC-2998 colon): > 100 µM
TGI (HCC-2998 colon): > 100 µM
GI50 (HOP-62 NSCLC): > 100 µM
TGI (HOP-62 NSCLC): > 100 µM
GI50 (HOP-92 NSCLC): > 100 µM
TGI (HOP-92 NSCLC): > 100 µM
GI50 (HS 578T breast): > 100 µM
TGI (HS 578T breast): > 100 µM
GI50 (HT29 colon): > 100 µM
TGI (HT29 colon): > 100 µM
GI50 (IGROV1 ovarian): > 100 µM
TGI (IGROV1 ovarian): > 100 µM
GI50 (K-562 leukemia): > 100 µM
TGI (K-562 leukemia): > 100 µM
GI50 (KM12 colon): > 100 µM
TGI (KM12 colon): > 100 µM
GI50 (LOX IMVI melanoma): > 100 µM
TGI (LOX IMVI melanoma): > 100 µM
GI50 (M14 melanoma): > 100 µM
TGI (M14 melanoma): > 100 µM
GI50 (MDA-MB-231 breast): > 100 µM
TGI (MDA-MB-231 breast): > 100 µM
GI50 (MDA-MB-435 melanoma): > 100 µM
TGI (MDA-MB-435 melanoma): > 100 µM
GI50 (MDA-MB-468 breast): > 100 µM
TGI (MDA-MB-468 breast): > 100 µM
GI50 (NCI-H226 lung): > 100 µM
TGI (NCI-H226 lung): > 100 µM
GI50 (NCI-H23 lung): > 100 µM
TGI (NCI-H23 lung): > 100 µM
GI50 (NCI-H322M lung): > 100 µM
TGI (NCI-H322M lung): > 100 µM
GI50 (NCI-H460 NSCLC): > 100 µM
TGI (NCI-H460 NSCLC): > 100 µM
GI50 (NCI-H522 lung): > 100 µM
TGI (NCI-H522 lung): > 100 µM
GI50 (NCI/ADR-RES ovarian): > 100 µM
TGI (NCI/ADR-RES ovarian): > 100 µM
GI50 (OVCAR-3 ovarian): > 100 µM
TGI (OVCAR-3 ovarian): > 100 µM
GI50 (OVCAR-4 ovarian): > 100 µM
TGI (OVCAR-4 ovarian): > 100 µM
GI50 (OVCAR-5 ovarian): > 100 µM
TGI (OVCAR-5 ovarian): > 100 µM
GI50 (OVCAR-8 ovarian): > 100 µM
TGI (OVCAR-8 ovarian): > 100 µM
GI50 (RPMI-8226 leukemia): > 100 µM
TGI (RPMI-8226 leukemia): > 100 µM
GI50 (RXF 393 renal): > 100 µM
TGI (RXF 393 renal): > 100 µM
GI50 (SF-268 CNS): > 100 µM
TGI (SF-268 CNS): > 100 µM
GI50 (SF-295 CNS): > 100 µM
TGI (SF-295 CNS): > 100 µM
GI50 (SF-539 CNS): > 100 µM
TGI (SF-539 CNS): > 100 µM
GI50 (SK-MEL-5 melanoma): > 100 µM
TGI (SK-MEL-5 melanoma): > 100 µM
GI50 (SK-OV-3 ovarian): > 100 µM
TGI (SK-OV-3 ovarian): > 100 µM
GI50 (SNB-19 CNS): > 100 µM
TGI (SNB-19 CNS): > 100 µM
GI50 (SNB-75 CNS): > 100 µM
TGI (SNB-75 CNS): > 100 µM
GI50 (T-47D breast): > 100 µM
TGI (T-47D breast): > 100 µM
GI50 (U251 glioblastoma): > 100 µM
TGI (U251 glioblastoma): > 100 µM
GI50 (UACC-257 melanoma): > 100 µM
TGI (UACC-257 melanoma): > 100 µM
GI50 (UACC-62 melanoma): > 100 µM
TGI (UACC-62 melanoma): > 100 µM
GI50 (UO-31 renal): > 100 µM
TGI (UO-31 renal): > 100 µM
